Source: patent publication US9642869B2, “Boronic acid derivatives and therapeutic uses thereof” (Rempex Pharmaceuticals, Inc., priority 2013, dated 2017)
Like-named read-outs stand apart in the source and are kept apart here.

Key:
CTX-M-15 KP1009 [1] = experiment: Aztreonam potentiation (MPC@4); format: cell-based; details: minimum BLI concentration inhibiting growth with 4 μg/mL aztreonam
SHV-5 ec308 [2] = experiment: Aztreonam potentiation (MPC@4); format: cell-based; details: minimum BLI concentration inhibiting growth with 4 μg/mL aztreonam
KPC-2 KP1004 = experiment: Aztreonam potentiation (MPC@4); format: cell-based; details: minimum BLI concentration inhibiting growth with 4 μg/mL aztreonam
ECL1002 [3] = experiment: Aztreonam potentiation (MPC@4); format: cell-based; details: minimum BLI concentration inhibiting growth with 4 μg/mL aztreonam
CMY-6 EC1010 [4] = experiment: Aztreonam potentiation (MPC@4); format: cell-based; details: minimum BLI concentration inhibiting growth with 4 μg/mL aztreonam
CTX-M-14 KP1005 [5] = format: cell-based
CTX-M-15 KP1009 [6] = format: cell-based
SHV-5 ec308 [7] = format: cell-based; details: minimum BLI concentration inhibiting growth with tigemonam at 4 μg/mL
ECL1002 [8] = format: cell-based; details: minimum BLI concentration inhibiting growth with tigemonam at 4 μg/mL
KP1004 KPC-2 = experiment: Biapenem potentiation (MPC@1); format: cell-based; details: minimum BLI concentration inhibiting growth with 1 μg/mL biapenem
Experimental: (§1) Biapenem was present in the test medium at 1 μg/mL. […] Table 3 summarizes the BLI potency of biapenem potentiation (MPC@1) for two strains overexpressing class A (KPC) and class D (OXA-48) carbapenemases. Biapenem MIC for each strain is also shown.

OXA-48 KP1086 = experiment: Biapenem potentiation (MPC@1); format: cell-based; details: minimum BLI concentration inhibiting growth with 1 μg/mL biapenem
Experimental: as §1

OXA-48 = OXA-48 (Klebsiella pneumoniae, UniProt Q6XEC0); experiment: Inhibition of nitrocefin cleavage by purified enzyme (Ki); format: biochemical; details: nitrocefin reporter substrate, 10 min preincubation; read-out: Ki (OXA-48, NCF)
Method in brief: (§2)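 Purified enzyme was preincubated with a range of inhibitor concentrations in reaction buffer for 10 min at room temperature. Nitrocefin was then added and its cleavage followed at 490 nm every 10 sec for 10 min.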

SHV-12 = SHV-12 (Klebsiella pneumoniae, UniProt P0AD64, E235K/G234S/L31Q); experiment: as above; format: biochemical
Method in brief: as §2

[9] = Intravenous pharmacokinetics; format: in vivo; details: rat, plasma, rats, IV infusion over 0.5 hours, read-out: Free Cl (converted)
Experimental: Rats (n=3 per compound) were administered by a single infusion. IV doses were infused over 0.5 hours via an indwelling femoral vein cannula. Plasma (˜0.3 mL) samples were collected from each rat at designated time points up to 24 hours. Blood samples were centrifuged within 5 min of collection at 12000 g for 5 min to obtain plasma. The plasma samples were stored at −80° C. until analyzed. Data were analyzed using WinNonlin.

CTX-M-14 KP1005 [10] = experiment: Aztreonam potentiation (MPC@4); format: cell-based; details: minimum BLI concentration inhibiting growth with 4 μg/mL aztreonam
TEM-10 ec302 [11] = experiment: Aztreonam potentiation (MPC@4); format: cell-based; details: minimum BLI concentration inhibiting growth with 4 μg/mL aztreonam
TEM-10 ec302 [12] = format: cell-based
CMY-6 EC1010 [13] = format: cell-based; details: minimum BLI concentration inhibiting growth with tigemonam at 4 μg/mL
CTX-M-14 = CTX-M-14 (Escherichia coli, UniProt Q9L5C7); experiment: Inhibition of nitrocefin cleavage by purified enzyme (Ki); format: biochemical; details: nitrocefin reporter substrate, 10 min preincubation; read-out: Ki (CTX-M-14, NCF)
Method in brief: as §2

KPC-2 = KPC-2 (Klebsiella pneumoniae, UniProt Q9F663); experiment: as above; format: biochemical; details: nitrocefin reporter substrate, 10 min preincubation; read-out: Ki (KPC-2, NCF)
Method in brief: as §2

P99 = P99 (Enterobacter cloacae, UniProt P05364); experiment: as above; format: biochemical; details: nitrocefin reporter substrate, 10 min preincubation; read-out: Ki (P99, NCF)
Method in brief: as §2

Sequence of CTX-M-14 (Q9L5C7 entry or part of it): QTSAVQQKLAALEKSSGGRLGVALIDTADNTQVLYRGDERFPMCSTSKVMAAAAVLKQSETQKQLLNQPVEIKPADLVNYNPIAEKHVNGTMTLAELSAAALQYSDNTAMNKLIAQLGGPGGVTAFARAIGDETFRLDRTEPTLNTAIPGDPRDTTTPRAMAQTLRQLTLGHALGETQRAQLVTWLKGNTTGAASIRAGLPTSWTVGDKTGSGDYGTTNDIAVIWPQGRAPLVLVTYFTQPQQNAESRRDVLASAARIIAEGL
Sequence of OXA-48 (Q6XEC0 23-265 limits assumed): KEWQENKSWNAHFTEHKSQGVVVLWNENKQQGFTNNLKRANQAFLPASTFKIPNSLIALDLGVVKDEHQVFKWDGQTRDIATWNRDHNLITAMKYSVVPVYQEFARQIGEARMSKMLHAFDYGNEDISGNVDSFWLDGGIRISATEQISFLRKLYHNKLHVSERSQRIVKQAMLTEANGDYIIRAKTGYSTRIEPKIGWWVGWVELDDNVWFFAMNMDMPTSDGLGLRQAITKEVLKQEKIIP
Sequence of KPC-2 (Q9F663 25-293 limits assumed): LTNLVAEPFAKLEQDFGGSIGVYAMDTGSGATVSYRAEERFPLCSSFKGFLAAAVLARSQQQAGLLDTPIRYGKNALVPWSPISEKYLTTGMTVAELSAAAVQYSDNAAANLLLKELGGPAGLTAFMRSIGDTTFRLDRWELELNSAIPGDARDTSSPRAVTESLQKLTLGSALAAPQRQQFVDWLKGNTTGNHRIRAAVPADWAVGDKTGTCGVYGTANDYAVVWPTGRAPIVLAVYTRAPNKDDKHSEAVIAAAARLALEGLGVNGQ
Sequence of P99 (P05364 21-381): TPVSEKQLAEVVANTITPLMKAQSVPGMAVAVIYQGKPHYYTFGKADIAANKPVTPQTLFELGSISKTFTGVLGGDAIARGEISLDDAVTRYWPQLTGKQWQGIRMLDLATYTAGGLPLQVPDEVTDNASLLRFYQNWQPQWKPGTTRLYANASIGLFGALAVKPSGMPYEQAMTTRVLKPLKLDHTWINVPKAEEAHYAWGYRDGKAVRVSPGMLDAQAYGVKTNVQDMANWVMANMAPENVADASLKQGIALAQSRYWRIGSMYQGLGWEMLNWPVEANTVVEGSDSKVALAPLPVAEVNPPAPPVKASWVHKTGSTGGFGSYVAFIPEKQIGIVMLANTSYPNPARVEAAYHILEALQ
Sequence of SHV-12 (P0AD64 22-286 L31Q/G234S/E235K): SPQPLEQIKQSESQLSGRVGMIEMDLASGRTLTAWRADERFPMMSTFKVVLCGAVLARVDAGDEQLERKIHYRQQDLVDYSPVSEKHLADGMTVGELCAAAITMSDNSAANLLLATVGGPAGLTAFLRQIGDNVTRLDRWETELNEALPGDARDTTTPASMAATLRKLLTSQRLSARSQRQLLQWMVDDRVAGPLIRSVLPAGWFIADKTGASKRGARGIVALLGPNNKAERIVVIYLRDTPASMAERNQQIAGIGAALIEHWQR

Structure (SMILES)	AZT MPC4 CTX-M-15 KP1009 (CTX-M-15 KP1009 [1])	AZT MPC4 SHV-5 ec308 (SHV-5 ec308 [2])	AZT MPC4 KPC-2 KP1004 (KPC-2 KP1004)	AZT MPC4 ECL1002 (ECL1002 [3])	AZT MPC4 CMY-6 EC1010 (CMY-6 EC1010 [4])	TIG MPC4 CTX-M-14 KP1005 (CTX-M-14 KP1005 [5])	TIG MPC4 CTX-M-15 KP1009 (CTX-M-15 KP1009 [6])	TIG MPC4 SHV-5 ec308 (SHV-5 ec308 [7])	TIG MPC4 ECL1002 (ECL1002 [8])	BPM MPC1 KP1004 KPC-2 (KP1004 KPC-2)	BPM MPC1 OXA-48 KP1086 (OXA-48 KP1086)	Ki (OXA-48)	AZT MPC4 CTX-M-14 KP1005 (CTX-M-14 KP1005 [10])	AZT MPC4 TEM-10 ec302 (TEM-10 ec302 [11])	TIG MPC4 CMY-6 EC1010 (CMY-6 EC1010 [13])	Ki (CTX-M-14)	Ki (KPC-2)	Ki (P99)	Ki (SHV-12)	further results
NC(=O)CC(=O)N[C@H]1Cc2cccc(C(=O)O)c2OB1O [Compound 16, (R)-3-(3-amino-3-oxopropanamido)-2-hydroxy-3,4-dihydro-2H-benzo[e][1,2]oxaborinine-8-carboxylic acid]	X (MIC of less than 1 μg/mL)	X (MIC of less than 1 μg/mL)	Y (MIC of 1 μg/mL to 10 μg/mL)	X (MIC of less than 1 μg/mL)	X (MIC of less than 1 μg/mL)	Y (key: X: MIC of less than 1 μg/mL; Y: MIC of 1 μg/mL to 10 μg/mL; Z: MIC of greater than 10 μg/mL)	X (key: X: MIC of less than 1 μg/mL; Y: MIC of 1 μg/mL to 10 μg/mL; Z: MIC of greater than 10 μg/mL)	Y (MIC of 1 μg/mL to 10 μg/mL)	X (MIC of less than 1 μg/mL)	X (MIC of less than 1 μg/mL)	Y (MIC of 1 μg/mL to 10 μg/mL)	< 1 nM								Ki (SHV-12; nitrocefin reporter substrate, 10 min preincubation, read-out: Ki (SHV-12, NCF)): < 1 nM; clearance ([9]; dose 10 mg/kg): 14.5 mL/min/kg
Nc1nnc(C(=O)N[C@H]2Cc3cccc(C(=O)O)c3OB2O)o1 [Compound 20, (R)-3-(5-amino-1,3,4-oxadiazole-2-carboxamido)-2-hydroxy-3,4-dihydro-2H-benzo[e][1,2]oxaborinine-8-carboxylic acid]	X (MIC of less than 1 μg/mL)	X (MIC of less than 1 μg/mL)	Y (MIC of 1 μg/mL to 10 μg/mL)	X (MIC of less than 1 μg/mL)	X (MIC of less than 1 μg/mL)	Y (key: X: MIC of less than 1 μg/mL; Y: MIC of 1 μg/mL to 10 μg/mL; Z: MIC of greater than 10 μg/mL)	X (key: X: MIC of less than 1 μg/mL; Y: MIC of 1 μg/mL to 10 μg/mL; Z: MIC of greater than 10 μg/mL)	X (MIC of less than 1 μg/mL)	X (MIC of less than 1 μg/mL)	X (MIC of less than 1 μg/mL)	Y (MIC of 1 μg/mL to 10 μg/mL)	1 to 10 nM	Y (MIC of 1 μg/mL to 10 μg/mL)	Y (MIC of 1 μg/mL to 10 μg/mL)	X (MIC of less than 1 μg/mL)	1 to 10 nM	> 10 nM	1 to 10 nM	1 to 10 nM	TIG MPC4 TEM-10 ec302 (TEM-10 ec302 [12]): Y (key: X: MIC of less than 1 μg/mL; Y: MIC of 1 μg/mL to 10 μg/mL; Z: MIC of greater than 10 μg/mL)
CNC(=O)CC(=O)N[C@H]1Cc2cccc(C(=O)O)c2OB1O [Compound 21, (R)-2-hydroxy-3-(3-(methylamino)-3-oxopropanamido)-3,4-dihydro-2H-benzo[e][1,2]oxaborinine-8-carboxylic acid]	X (MIC of less than 1 μg/mL)	X (MIC of less than 1 μg/mL)	Y (MIC of 1 μg/mL to 10 μg/mL)	X (MIC of less than 1 μg/mL)	X (MIC of less than 1 μg/mL)	Y (key: X: MIC of less than 1 μg/mL; Y: MIC of 1 μg/mL to 10 μg/mL; Z: MIC of greater than 10 μg/mL)	Y (key: X: MIC of less than 1 μg/mL; Y: MIC of 1 μg/mL to 10 μg/mL; Z: MIC of greater than 10 μg/mL)	Y (MIC of 1 μg/mL to 10 μg/mL)	X (MIC of less than 1 μg/mL)	X (MIC of less than 1 μg/mL)	Y (MIC of 1 μg/mL to 10 μg/mL)	< 1 nM	Y (MIC of 1 μg/mL to 10 μg/mL)	Y (MIC of 1 μg/mL to 10 μg/mL)	X (MIC of less than 1 μg/mL)	1 to 10 nM	> 10 nM	1 to 10 nM	< 1 nM	
O=C(CSC1CNC1)N[C@H]1Cc2cccc(C(=O)O)c2OB1O [Compound 22, (R)-3-(2-(azetidin-3-ylthio)acetamido)-2-hydroxy-3,4-dihydro-2H-benzo[e][1,2]oxaborinine-8-carboxylic acid]	X (MIC of less than 1 μg/mL)	X (MIC of less than 1 μg/mL)	X (MIC of less than 1 μg/mL)	X (MIC of less than 1 μg/mL)	X (MIC of less than 1 μg/mL)	Y (key: X: MIC of less than 1 μg/mL; Y: MIC of 1 μg/mL to 10 μg/mL; Z: MIC of greater than 10 μg/mL)	X (key: X: MIC of less than 1 μg/mL; Y: MIC of 1 μg/mL to 10 μg/mL; Z: MIC of greater than 10 μg/mL)	Y (MIC of 1 μg/mL to 10 μg/mL)	X (MIC of less than 1 μg/mL)	X (MIC of less than 1 μg/mL)	Y (MIC of 1 μg/mL to 10 μg/mL)	1 to 10 nM	X (MIC of less than 1 μg/mL)	Y (MIC of 1 μg/mL to 10 μg/mL)	X (MIC of less than 1 μg/mL)	1 to 10 nM	> 10 nM	1 to 10 nM	< 1 nM	clearance ([9]; dose 20 mg/kg): 9.5 mL/min/kg
